Laboratory results published in ChEMBL document CHEMBL5576127, “New CDDO Arylboronate Ester Derivatives with High Selectivity and Low Toxicity” (J Med Chem, 2024).
The source made the active and inactive calls. No cut-off for these calls is given here.

What was measured:
[1] = Acute toxicity in ip dosed ICR mouse assessed as effect on kidney by H and E staining based analysis; type: organism-based; conditions: in vivo
[2] = Acute toxicity in ip dosed ICR mouse assessed as effect on lung by H and E staining based analysis; type: organism-based; conditions: in vivo
Cell membrane [3] = experiment: Induction of mitochondrial membrane potential loss in human BGC-823 cells assessed as increase in number of cells with J-monomers by measuring green fluorescence at 6 uM incubated for 24 hrs by JC-1 staining based flow cytometric analysis (reference value: 0.33%); type: cell membranes
[4] = Acute toxicity in ip dosed ICR mouse assessed as effect on spleen by H and E staining based analysis; type: organism-based; conditions: in vivo
BGC-823 [5] = experiment: Induction of ROS generation in human BGC-823 cells assessed as cells with green fluorescence at 6 uM incubated for 24 hrs by DCFH-DA staining based analysis relative to control; type: functional
[6] = Selectivity index, ratio of IC50 for cytotoxicity against human GES1 cells to IC50 for antiproliferative activity against human BGC-823 cells in presence of H2O2; type: toxicity, cell-based; conditions: GES1 cells and BGC-823 cells, read-out: Ratio IC50
BGC-823 [7] = experiment: Induction of apoptosis in human BGC-823 cells assessed as necrotic cells at 1.5 uM incubated for 48 hrs by Annexin V-FITC/PI staining based flow cytometric analysis ( Rvb = 1.79 %); type: functional
[8] = Acute toxicity in ip dosed ICR mouse assessed as animal death at 1.82 logarithm of dose; type: organism-based; conditions: in vivo
BGC-823 [9] = experiment: Induction of apoptosis in human BGC-823 cells assessed as necrotic cells at 6 uM incubated for 48 hrs by Annexin V-FITC/PI staining based flow cytometric analysis ( Rvb = 1.79 %); type: functional
BGC-823 [10] = experiment: Antiproliferative activity against human BGC-823 cells assessed as reduction in cell viability at 0.52 to 7.68 uM preincubated with NAC for 2 hrs followed by compound addition and measured after 48 hrs by MTT assay; type: functional, cell-based; conditions: dose 0.52-7.68 µM
BGC-823 [11] = experiment: Induction of apoptosis in human BGC-823 cells assessed as viable cells at 3 uM incubated for 48 hrs by Annexin V-FITC/PI staining based flow cytometric analysis ( Rvb = 90.09 %); type: functional; conditions: read-out: Activity
SGC-7901 = experiment: Antiproliferative activity against human SGC-7901 cells assessed as inhibition of cell proliferation incubated for 48 hrs by MTT assay; type: functional, cell-based; conditions: SGC-7901, 48 h
[12] = Acute toxicity in ip dosed ICR mouse assessed as effect on liver by H and E staining based analysis; type: organism-based; conditions: in vivo
BGC-823 [13] = experiment: Induction of apoptosis in human BGC-823 cells assessed as viable cells at 6 uM incubated for 48 hrs by Annexin V-FITC/PI staining based flow cytometric analysis ( Rvb = 90.09 %); type: functional; conditions: read-out: Activity
[14] = Cytotoxicity against human MCF-10A cells assessed as inhibition of cell proliferation incubated for 48 hrs by MTT assay; type: toxicity, cell-based
NCI-N87 = experiment: Antiproliferative activity against human NCI-N87 cells assessed as inhibition of cell proliferation incubated for 48 hrs by MTT assay; type: functional, cell-based; conditions: NCI-N87, 48 h
BGC-823 [15] = experiment: Antiproliferative activity against human BGC-823 cells assessed as inhibition of cell proliferation incubated for 48 hrs by MTT assay; type: functional, cell-based; conditions: BGC-823, 48 h
[16] = Acute toxicity in ip dosed ICR mouse assessed as effect on heart by H and E staining based analysis; type: organism-based; conditions: in vivo
[17] = Cytotoxicity against human L02 cells assessed as inhibition of cell proliferation incubated for 48 hrs by MTT assay; type: toxicity, cell-based
BGC-823 [18] = experiment: Induction of apoptosis in human BGC-823 cells assessed as early apoptotic cells at 6 uM incubated for 48 hrs by Annexin V-FITC/PI staining based flow cytometric analysis ( Rvb = 1.68 %); type: functional
BGC-823 [19] = experiment: Antitumor activity against human BGC-823 cells xenografted in BALB/c nude mouse assessed as tumor growth inhibition at 5 mg/kg, ip administered for 21 days relative to control; type: functional; conditions: BGC-823, 504 h, time 21 day, read-out: TGI
[20] = Toxicity in BALB/c nude mouse xenografted with human BGC-823 cells assessed as change in body weight at 5 mg/kg, ip administered for 21 days; type: organism-based; conditions: in vivo, 504 h, time 21 day
[21] = Acute toxicity in ip dosed ICR mouse assessed as lethal dose; type: organism-based; conditions: in vivo
MCF7 = experiment: Antiproliferative activity against human MCF7 cells assessed as inhibition of cell proliferation incubated for 48 hrs by MTT assay; type: functional, cell-based; conditions: MCF7, 48 h
BGC-823 [22] = experiment: Antitumor activity against human BGC-823 cells xenografted in BALB/c nude mouse assessed as nuclear fragmentation in tumor at 5 mg/kg, ip administered for 21 days by H and E staining based analysis; type: functional, organism-based; conditions: time 21.0 day
[23] = Binding affinity to DTT in PBS assessed as UV peak appearance at 288 nm at 360 uM by UV-Vis spectra analysis
BGC-823 [24] = experiment: Antiproliferative activity against human BGC-823 cells assessed as inhibition of cell proliferation preincubated with H2O2 for 2 hrs followed by compound addition and measured after 48 hrs by MTT assay; type: functional, cell-based
BGC-823 [25] = experiment: Induction of apoptosis in human BGC-823 cells assessed as late apoptotic cells at 1.5 uM incubated for 48 hrs by Annexin V-FITC/PI staining based flow cytometric analysis ( Rvb = 5.61 %); type: functional
[26] = GSH reactivity in human BGC-823 cells assessed as GSSG/GSH ratio at 2 uM incubated for 24 hrs by microplate reader analysis (reference value: 0.34); type: ADME, cell-based; conditions: bgc-823, 24 h
[27] = Drug release in human BGC-823 cells assessed as increase in 4-((4-hydroxybenzoyl)oxy)butyl (4aS,6aR,6bS,8aR,12aS,14aR,14bS)-11-cyano-2,2,6a,6b,9,9,12a-heptamethyl-10,14-dioxo-1,3,4,5,6,6a,6b,7,8,8a,9,10,12a,14,14a,14b-hexadecahydropicene-4a(2H)-carboxylate concentration incubated for 4 hrs in absence of H2O2 by LC-MS analysis; type: ADME, cell-based; conditions: bgc-823, 4 h
[28] = Cytotoxicity against human GES1 cells assessed as inhibition of cell proliferation incubated for 48 hrs by MTT assay; type: toxicity, cell-based
BGC-823 [29] = experiment: Antitumor activity against human BGC-823 cells xenografted in BALB/c nude mouse assessed as increase in ROS level in tumor at 5 mg/kg, ip administered for 21 days by DHE staining based analysis; type: functional, organism-based; conditions: time 21.0 day
BGC-823 [30] = experiment: Cell cycle arrest in human BGC-823 cells assessed as accumulation of cells at G2/M phase incubated for 24 hrs by PI staining based flow cytometric analysis; type: functional
BGC-823 [31] = experiment: Induction of apoptosis in human BGC-823 cells assessed as late apoptotic cells at 3 uM incubated for 48 hrs by Annexin V-FITC/PI staining based flow cytometric analysis ( Rvb = 5.61 %); type: functional
BGC-823 [32] = experiment: Induction of apoptosis in human BGC-823 cells assessed as early apoptotic cells at 3 uM incubated for 48 hrs by Annexin V-FITC/PI staining based flow cytometric analysis ( Rvb = 1.68 %); type: functional
BGC-823 [33] = experiment: Induction of apoptosis in human BGC-823 cells assessed as late apoptotic cells at 6 uM incubated for 48 hrs by Annexin V-FITC/PI staining based flow cytometric analysis ( Rvb = 5.61 %); type: functional
BGC-823 [34] = experiment: Antiproliferative activity against human BGC-823 cells assessed as reduction in cell viability at 0.52 to 7.68 uM preincubated with H2O2 for 2 hrs followed by compound addition and measured after 48 hrs by MTT assay; type: functional, cell-based; conditions: dose 0.52-7.68 µM
BGC-823 [35] = experiment: Antitumor activity against human BGC-823 cells xenografted in BALB/c nude mouse assessed as nuclear condensation in tumor at 5 mg/kg, ip administered for 21 days by H and E staining based analysis; type: functional, organism-based; conditions: time 21.0 day
BGC-823 [36] = experiment: Induction of apoptosis in human BGC-823 cells assessed as necrotic cells at 3 uM incubated for 48 hrs by Annexin V-FITC/PI staining based flow cytometric analysis ( Rvb = 1.79 %); type: functional
HepG2 = experiment: Antiproliferative activity against human HepG2 cells assessed as inhibition of cell proliferation incubated for 48 hrs by MTT assay; type: functional, cell-based; conditions: HepG2, 48 h
Cell membrane [37] = experiment: Induction of mitochondrial membrane potential loss in human BGC-823 cells assessed as decrease in number of cells with J-aggregates by measuring red fluorescence at 6 uM incubated for 24 hrs by JC-1 staining based flow cytometric analysis (reference value: 99.7 %); type: cell membranes; design: scale not given: the % may be the effect or the level left
BGC-823 [38] = experiment: Induction of apoptosis in human BGC-823 cells assessed as viable cells at 1.5 uM incubated for 48 hrs by Annexin V-FITC/PI staining based flow cytometric analysis ( Rvb = 90.09 %); type: functional; conditions: read-out: Activity
BGC-823 [39] = experiment: Induction of apoptosis in human BGC-823 cells assessed as early apoptotic cells at 1.5 uM incubated for 48 hrs by Annexin V-FITC/PI staining based flow cytometric analysis ( Rvb = 1.68 %); type: functional
[40] = Acute toxicity in ip dosed ICR mouse assessed as mortality rate by measuring ratio at 1.93 logarithm of dose relative to total number of mouse; type: organism-based; conditions: in vivo
MGC-803 = experiment: Antiproliferative activity against human MGC-803 cells assessed as inhibition of cell proliferation incubated for 48 hrs by MTT assay; type: functional, cell-based; conditions: MGC-803, 48 h

With CC1(C)CC[C@]2(C(=O)OCCCCOC(=O)c3ccc(OCc4ccc(B5OC(C)(C)C(C)(C)O5)cc4)cc3)CC[C@]3(C)[C@H](C(=O)C=C4[C@@]5(C)C=C(C#N)C(=O)C(C)(C)[C@@H]5CC[C@]43C)[C@@H]2C1 the Activity [1] was “Non-Toxic”, the Activity [2] was “Non-Toxic” and the Activity (Cell membrane [3]) was 37.1%. The Activity [4] was “Non-Toxic”, the Activity (BGC-823 [5]) was 35.7% and the selectivity ratio [6] was 4. The Activity (BGC-823 [7]) was 3.23%, the Activity [8] was “Toxic” and the Activity (BGC-823 [9]) was 5.58%. For the same compound, the Activity (BGC-823 [10]) was “inactive”, the viability at 3 µM (BGC-823 [11]) was 82.8% and the IC50 (SGC-7901) was 3.2 µM. The Activity [12] was “Non-Toxic”, the viability at 6 µM (BGC-823 [13]) was 75.8% and the IC50 at 48 h [14] was 5 µM. The IC50 (NCI-N87) was 2.5 µM, the IC50 (BGC-823 [15]) was 2.3 µM and the Activity [16] was “Non-Toxic”. For the same compound, the IC50 at 48 h [17] was 6.5 µM, the Activity (BGC-823 [18]) was 3.71% and the inhibition in vivo at 5 mg/kg (BGC-823 [19]) was 86.2%. For the same compound, the Activity [20] was “Non-Toxic”, the LD50 [21] was 91.2 mg/kg and the IC50 (MCF7) was 2.9 µM. The Activity (BGC-823 [22]) was “Active”, the Activity [23] was “inactive” and the IC50 (BGC-823 [24]) was 1.2 µM. The Activity (BGC-823 [25]) was 7.62%, the Ratio [26] was 0.48 and the Drug metabolism [27] was “Metabolite_Notdetected”. The IC50 at 48 h [28] was 4.5 µM, the Activity (BGC-823 [29]) was “Active” and the Activity (BGC-823 [30]) was “Dose-Dependent Effect”. It also gave an Activity (BGC-823 [31]) of 9.84%, an Activity (BGC-823 [32]) of 2.13% and an Activity (BGC-823 [33]) of 14.9%. For the same compound, the Activity (BGC-823 [34]) was “Active”, the Activity (BGC-823 [35]) was “Active” and the Activity (BGC-823 [36]) was 5.24%. It also gave an IC50 (HepG2) of 6.5 µM, an Activity (Cell membrane [37]) of 62.7% and a viability at 1.5 µM (BGC-823 [38]) of 87.1%. It also gave an Activity (BGC-823 [39]) of 2.08%, a Ratio [40] of 0.17 and an IC50 (MGC-803) of 3.6 µM.
